This is an account of results in PubChem BioAssay AID1259407 (Chemical Carcinogenesis Research Information System (CCRIS), 2018).

Activity calls are given as the source filed them. How the calls were made is not given here.

In this data set the test system is CCRIS mutagenicity, Ames/micronucleus/aberration tests. As to the kind of experiment: CCRIS mutagenicity studies.

With `Nc1ccc2c([nH]c3ccccc32)c1[N+](=O)[O-]`, the mutagenic call is “active; positive” (Test System: AMES SALMONELLA TYPHIMURIUM, Strain/Indicator: TA98, Metabolic Activation: NONE, Method: STANDARD PLATE); “active; positive” (Test System: AMES SALMONELLA TYPHIMURIUM, Strain/Indicator: TA98, Metabolic Activation: RAT, LIVER, S-9, PHENOBARBITAL, Method: STANDARD PLATE); “active; positive” (Test System: AMES SALMONELLA TYPHIMURIUM, Strain/Indicator: TA100, Metabolic Activation: NONE, Method: STANDARD PLATE); “active; positive” (Test System: AMES SALMONELLA TYPHIMURIUM, Strain/Indicator: TA100, Metabolic Activation: RAT, LIVER, S-9, PHENOBARBITAL, Method: STANDARD PLATE); “active; positive” (Test System: AMES SALMONELLA TYPHIMURIUM, Strain/Indicator: TA1537, Metabolic Activation: NONE, Method: STANDARD PLATE); “active; positive” (Test System: AMES SALMONELLA TYPHIMURIUM, Strain/Indicator: TA1537, Metabolic Activation: RAT, LIVER, S-9, PHENOBARBITAL, Method: STANDARD PLATE). The mutagenic call was “active; positive” (Test System: AMES SALMONELLA TYPHIMURIUM, Strain/Indicator: TA1538, Metabolic Activation: NONE, Method: STANDARD PLATE); “active; positive” (Test System: AMES SALMONELLA TYPHIMURIUM, Strain/Indicator: TA1538, Metabolic Activation: RAT, LIVER, S-9, PHENOBARBITAL, Method: STANDARD PLATE); “inactive; negative” (Test System: AMES SALMONELLA TYPHIMURIUM, Strain/Indicator: TA1977, Metabolic Activation: NONE, Method: STANDARD PLATE); “active; positive” (Test System: AMES SALMONELLA TYPHIMURIUM, Strain/Indicator: TA1977, Metabolic Activation: RAT, LIVER, S-9, PHENOBARBITAL, Method: STANDARD PLATE).

Take `C=C1C/C(=C/C)C(=O)O[C@@H]2CCN3CC=C(COC(=O)[C@]1(C)O)[C@H]23`: the mutagenic call was “inactive; negative” (Test System: AMES SALMONELLA TYPHIMURIUM, Strain/Indicator: TA97, Metabolic Activation: HAMSTER, LIVER, S-9, AROCLOR 1254 (5, 10 OR 30%), Method: PREINCUBATION); “inactive; negative” (Test System: AMES SALMONELLA TYPHIMURIUM, Strain/Indicator: TA97, Metabolic Activation: NONE, Method: PREINCUBATION); “inactive; negative” (Test System: AMES SALMONELLA TYPHIMURIUM, Strain/Indicator: TA97, Metabolic Activation: RAT, LIVER, S-9, AROCLOR 1254 (5, 10 OR 30%), Method: PREINCUBATION); “inactive; negative” (Test System: AMES SALMONELLA TYPHIMURIUM, Strain/Indicator: TA98, Metabolic Activation: HAMSTER, LIVER, S-9, AROCLOR 1254 (10%), Method: PREINCUBATION); “inactive; negative” (Test System: AMES SALMONELLA TYPHIMURIUM, Strain/Indicator: TA98, Metabolic Activation: NONE, Method: PREINCUBATION); “inactive; negative” (Test System: AMES SALMONELLA TYPHIMURIUM, Strain/Indicator: TA98, Metabolic Activation: RAT, LIVER, S-9, AROCLOR 1254 (10%), Method: PREINCUBATION). Besides, the mutagenic call runs as follows: (Test System: AMES SALMONELLA TYPHIMURIUM, Strain/Indicator: TA100, Metabolic Activation: HAMSTER, LIVER, S-9, AROCLOR 1254 (5%), Method: PREINCUBATION) “inactive; negative”; (Test System: AMES SALMONELLA TYPHIMURIUM, Strain/Indicator: TA100, Metabolic Activation: HAMSTER, LIVER, S-9, AROCLOR 1254 (10 OR 30%), Method: PREINCUBATION) “active; positive”; (Test System: AMES SALMONELLA TYPHIMURIUM, Strain/Indicator: TA100, Metabolic Activation: HAMSTER, LIVER, S-9, PCB, Method: PREINCUBATION) “inactive; negative”; (Test System: AMES SALMONELLA TYPHIMURIUM, Strain/Indicator: TA100, Metabolic Activation: NONE, Method: PREINCUBATION) “inactive; negative”; (Test System: AMES SALMONELLA TYPHIMURIUM, Strain/Indicator: TA100, Metabolic Activation: RAT, LIVER, S-9, AROCLOR 1254 (5 OR 30%), Method: PREINCUBATION) “inactive; negative”; (Test System: AMES SALMONELLA TYPHIMURIUM, Strain/Indicator: TA100, Metabolic Activation: RAT, LIVER, S-9, AROCLOR 1254 (10%), Method: PREINCUBATION) “inactive; negative”. Also, the mutagenic call was “inactive; negative” (Test System: AMES SALMONELLA TYPHIMURIUM, Strain/Indicator: TA100, Metabolic Activation: RAT, LIVER, S-9, PCB, Method: PREINCUBATION); “inactive; negative” (Test System: AMES SALMONELLA TYPHIMURIUM, Strain/Indicator: TA100, Metabolic Activation: RAT, LIVER, S-9, SODIUM PHENOBARBITAL AND BETA-NAPHTHOFLAVONE, Method: PREINCUBATION); “inactive; negative” (Test System: AMES SALMONELLA TYPHIMURIUM, Strain/Indicator: TA1535, Metabolic Activation: HAMSTER, LIVER, S-9, AROCLOR 1254 (10%), Method: PREINCUBATION); “inactive; negative” (Test System: AMES SALMONELLA TYPHIMURIUM, Strain/Indicator: TA1535, Metabolic Activation: NONE, Method: PREINCUBATION); “inactive; negative” (Test System: AMES SALMONELLA TYPHIMURIUM, Strain/Indicator: TA1535, Metabolic Activation: RAT, LIVER, S-9, AROCLOR 1254 (10%), Method: PREINCUBATION); “active; positive” (Test System: UDS HAMSTER HEPATOCYTES, Strain/Indicator: THY INCORP, Metabolic Activation: NONE, Method: AUTORADIOGRAPHY). For the same compound, the mutagenic call (Test System: UDS MOUSE HEPATOCYTES, Strain/Indicator: THY INCORP, Metabolic Activation: NONE, Method: AUTORADIOGRAPHY) is “active; positive” and the mutagenic call (Test System: UDS RAT HEPATOCYTES, Strain/Indicator: THY INCORP, Metabolic Activation: NONE, Method: AUTORADIOGRAPHY) was “active; positive”.

With `Cc1c(O)c(=O)ccn1C`, the mutagenic call runs as follows: (Test System: MOUSE LYMPHOMA, Strain/Indicator: L5178Y (TK+/TK-), Metabolic Activation: NONE, Method: SUSPENSION/PLATE) “active; positive. reevaluation of results: positive”; (Test System: MOUSE LYMPHOMA, Strain/Indicator: L5178Y (TK+/TK-), Metabolic Activation: RAT, LIVER, S-9, AROCLOR 1254, Method: SUSPENSION/PLATE) “active; positive. reevaluation of results: equivocal”.
